{"source": "ChEMBL document CHEMBL3045488", "about": "“3D-QSAR STUDIES ON SUBSTITUTED DIHYDROPYRIDINES FOR THEIR 1A-ADRENERGIC RECEPTOR BINDING AFFINITY” (Med Chem Res, 2004)"}
{"target": "T1, Alpha-1A adrenergic receptor (Homo sapiens, UniProt P35348)", "T1 sequence (P35348 whole entry)": "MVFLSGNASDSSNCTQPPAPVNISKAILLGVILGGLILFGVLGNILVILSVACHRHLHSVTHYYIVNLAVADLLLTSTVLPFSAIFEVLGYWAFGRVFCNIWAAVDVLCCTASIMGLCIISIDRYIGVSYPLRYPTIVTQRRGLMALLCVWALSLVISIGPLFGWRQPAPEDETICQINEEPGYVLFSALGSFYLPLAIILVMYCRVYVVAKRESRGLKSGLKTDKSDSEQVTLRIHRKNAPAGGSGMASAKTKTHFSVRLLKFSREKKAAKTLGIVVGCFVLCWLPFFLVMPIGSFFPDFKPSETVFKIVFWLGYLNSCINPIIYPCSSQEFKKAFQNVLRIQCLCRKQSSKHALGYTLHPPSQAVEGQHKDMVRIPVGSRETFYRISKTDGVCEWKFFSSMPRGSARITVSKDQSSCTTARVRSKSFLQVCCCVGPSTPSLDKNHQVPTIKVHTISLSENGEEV", "experiment": "Binding affinity to Homo sapiens (human) alpha1A adrenergic receptor", "units": {"Ki": "nM"}}
{"smiles": "COC(=O)C1=C(C)NC(C)=C(C(=O)NCCCN2CCC(C(=O)OC)(c3ccccc3)CC2)C1c1ccc([N+](=O)[O-])cc1", "note": "(stereo unspecified)", "Ki": 3.55}
{"smiles": "COC(=O)C1(c2ccccc2)CCN(CCCNC(=O)C2=C(C)NC(C)=C(C(=O)OCCO)C2c2ccc([N+](=O)[O-])cc2)CC1", "note": "(stereo unspecified)", "Ki": 3.63}
{"smiles": "COC(=O)C1=C(C)NC(C)=C(C(=O)NCCCCN2CCC(c3ccccc3)(c3ccccc3)CC2)C1c1ccc([N+](=O)[O-])cc1", "note": "(racemic)", "Ki": 14.8}
{"smiles": "COC(=O)C1=C(C)NC(C)=C(C(=O)NCCCN2CCC(c3ccccc3)CC2)C1c1ccc([N+](=O)[O-])cc1", "note": "(racemic)", "Ki": 0.229}
{"smiles": "COC(=O)C1=C(C)NC(C)=C(C(=O)NCCCN2CCC(c3ccccc3)(c3ccccc3)CC2)C1c1ccc(C)cc1", "note": "(racemic)", "Ki": 1.38}
{"smiles": "COC(=O)C1=C(C)NC(C)=C(C(=O)NCCCN2CCC(c3ccccc3)CC2)C1c1ccc(Cl)c([N+](=O)[O-])c1", "note": "(racemic)", "Ki": 0.525}
